# Data reported in patent publication US4312861A, “Pharmaceutical compositions containing N-alkyl-N-(nuclearly-substituted) benzylamines having vasotonia-regulating activity” (Hoechst Aktiengesellschaft, priority 1974, dated 1982).
# What was measured:
# [1] = test system: isolated guinea-pig heart; test: Relative coronary blood-flow change in isolated guinea-pig heart (Langendorff)
# Method: (4) Relative coronary blood-flow change in an isolated guinea-pig heart.
# The tests were carried out according to the method of Langendorff (Pflugers Archiv. 61 (1895), page 219).
# In Table 5, the change in coronary blood flow after administration of various quantities of the test substance is compared with that after administration of the known compounds heptaminol and Aescin sodium salt.
# [2] = Toxicity in the mouse (Litchfield and Wilcoxon); assay type: in vivo; conditions: mouse, in vivo
# Method: (6) Toxicity in the mouse
# Toxicity was determined according to Litchfield and Wilcoxon (J. Pharmacol. exp. Ther. 97 (1949), page 399) in the mouse. In comparison, the values with the known substance aescin sodium salt were determined. Comparative tests with 0.1% solution, of venous and optical compatibility on the rabbit yielded similar results.
# [3] = test system: isolated portal vein; test: Isolated rat's portal vein (Berti), increase in tonus
# Method: (2) Isolated rat's portal vein
# The tests on the rat's portal vein, an organ with its own rhythm, were performed according to the method of Berti et al (Arch. int. Pharmacodyn. 184 (1970), page 328). In Table 4, the increase in tonus at various adrenalin concentrations is given in milligrams. As a comparison, the values for the known substance heptaminol (=6-amino-2-methylheptane-2-ol) are also given.
# [4] = test system: perfused rabbit ear; test: Blood-flow change in perfused isolated rabbit ear, vaso-dilator activity (Ringer-Norfenefrin solution)
# Method: (3) Blood-flow change in an isolated rabbit ear
# The tests were carried out according to Krakow-Pissemski (Pflugers Archiv 151 (1913), page 583 and 156 (1914), page 426). In Table 5a the estimated values of the vaso-constrictor activity in Ringer solutions of varying concentrations are given and in Table 5b values for vasodilatory activity in Ringer-Norfenefrin solutions of varying concentrations are given. As a comparison, the values obtained with the known preparation aescin sodium are given.
# [5] = test system: permeability of the capillaries; test: Histamine rash test (modified Halpern), capillary permeability; assay type: in vivo; conditions: 30 minutes before histamine
# Method: The test according to Halpern (Presse medicale 65 (1949), page 949) was used in modified form. The suppressive effect of the compounds according to the invention on the permeability of the capillaries was tested. The blue coloration induced by intravenous administration of trypan blue at two intracutaneous histamine injection points per animal, (trypan blue administered 2 minutes before the histamine), was estimated according to the following scale of values:
# indications of blue coloration
# clear blue coloration =4
# stong blue coloration =6
# The preceding evaluation was made from the combined effect at the two injection points.
# The test substances were administered i.p. 30 minutes before the histamine injection.
# [6] = test system: writhing movements in the mouse; test: Writhing test (Winter); assay type: in vivo
# From the text: The analgesic activity of the compounds according to the invention were studied by the method of Winter et al (Proc. Soc. exp. Biol. Med, 111 (1962), page 544), in which the suppression of writhing movements in the mouse was observed.
# [7] = test system: carrageenin oedema in the rat paw; test: Suppression of carrageenin oedema in the rat paw (Siegmund); assay type: in vivo; conditions: 3 h p.a.
# Method: (7) Suppression of carrageenin oedema in the rat paw
# The inflammation-reducing and anti-oedematous effects on carrageenin and serotonin oedemas in the rat paw were studied according to Siegmund et al (Proc. Soc. exp. Biol. Med. 95 (1957), page 729). The values are given as percentages, based on the values obtained in control tests using a dummy procedure. In this way, the antiphlogistic activity of the substances according to the invention was tested.
# [8] = 10 μg (first figure where two are given)
# [9] = 30 μg (first figure where two are given)
# [10] = 100 μg (first figure where two are given)
structure (smiles),measurement,setting,value
CCCCCCCNCc1c(C)cc(C)cc1C [compound 16],Relative change in coronary blood flow,[1]; [8],+55
same,Relative change in coronary blood flow,[1]; [9],+61
same,LD50,[2]; ip,50 to 100 mg/kg
CCCCCCCCCNCc1c(C)cc(C)cc1C [compound 18],LD50,[2]; ip,50 to 100 mg/kg
"CC(N)CCCC(C)(C)O (stereo not drawn) [Heptaminol, 6-amino-2-methylheptane-2-ol, reference compound]","Increase in tonus, isolated rat's portal vein",[3]; 10^-4 g/ml,+47 milligrams
same,"Increase in tonus, isolated rat's portal vein",[3]; 10^-5 g/ml,+9 milligrams
same,"Increase in tonus, isolated rat's portal vein",[3]; 10^-6 g/ml,+9 milligrams
same,Effect on vessels of the tonicised rabbit ear,[4]; in words,intensifies the Ringer-Norfenefrin constriction in the rabbit ear
same,"Control test with heptaminol, rabbit ear (footnote ++)",[4]; mark in 10^-4 g/ml line,constriction
same,Relative change in coronary blood flow,[1]; [8],0
same,Relative change in coronary blood flow,[1]; [9],0
same,Relative change in coronary blood flow,[1]; [10],0
same,Effect on coronary vessels of the guinea-pig heart,[1]; in words,no effect on the guinea-pig heart
CCCCCCCCNCc1c(C)cc(C)cc1C [compound 17],Relative change in coronary blood flow,[1]; [9],+138
same,LD50,[2]; ip,25 to 50 mg/kg
CCCCC(C)NCc1c(C)cc(C)cc1C (stereo not drawn) [compound 25],"Relative change in blood flow, vaso-dilator activity",[4]; 3 × 10^-6 g/ml,+39
same,"Relative change in blood flow, vaso-dilator activity",[4]; 10^-4 g/ml,+147
same,"Relative change in blood flow, vaso-dilator activity",[4]; 10^-5 g/ml,+93
same,"Relative change in blood flow, vaso-dilator activity",[4]; 10^-6 g/ml,+1
same,"Relative change in blood flow, vaso-dilator activity",[4]; 10^-7 g/ml,+3
same,"Histamine rash test, blue coloration score (0 = none, 2 = indications, 4 = clear, 6 = strong)",[5]; 3.0 mg/kg i.p.,1.3
same,"Histamine rash test, blue coloration score (0 = none, 2 = indications, 4 = clear, 6 = strong)",[5]; 10.0 mg/kg i.p.,1.4
same,LD50,[2]; ip,50 to 100 mg/kg
same,Suppression of writhing movements,[6]; 50 mg/kg p.o.,46%
Cc1cc(C)c(CNCCCC(C)C)c(C)c1 [compound 19],"Relative change in coronary blood flow, second figure after slash",[1]; 10 μg,-15
same,Relative change in coronary blood flow,[1]; [8],+30
same,"Relative change in coronary blood flow, second figure after slash",[1]; 30 μg,-10
same,Relative change in coronary blood flow,[1]; [9],+71
same,LD50,[2]; ip,100 to 250 mg/kg
CCCCCC(C)NCc1ccc(F)cc1 (stereo not drawn) [compound 7],"Relative change in blood flow, vaso-dilator activity",[4]; 3 × 10^-5 g/ml,+34
same,LD50,[2]; ip,100 to 250 mg/kg
same,Suppression of carrageenin oedema in the paw (antiphlogistic activity),[7]; 25 mg/kg p.o.,53%
same,Suppression of carrageenin oedema in the paw (antiphlogistic activity),[7]; 63 mg/kg p.o.,71%
same,Suppression of writhing movements,[6]; 40 mg/kg p.o.,46%
same,Suppression of writhing movements,[6]; 63 mg/kg p.o.,67%
same,Suppression of writhing movements,[6]; 100 mg/kg p.o.,77%
CCCCCCNCc1c(C)cc(C)cc1C [compound 15],"Relative change in coronary blood flow, second figure after slash",[1]; 30 μg,-21
same,Relative change in coronary blood flow,[1]; [9],+68
same,"Relative change in coronary blood flow, second figure after slash",[1]; 100 μg,-17
same,Relative change in coronary blood flow,[1]; [10],+85
same,LD50,[2]; ip,50 to 100 mg/kg
CCC(C)CC(C)NCc1c(C)cc(C)cc1C (stereo not drawn) [compound 28],"Increase in tonus, isolated rat's portal vein",[3]; 10^-4 g/ml,+84 milligrams
same,"Increase in tonus, isolated rat's portal vein",[3]; 10^-5 g/ml,+57 milligrams
same,"Increase in tonus, isolated rat's portal vein",[3]; 10^-6 g/ml,+21 milligrams
same,"Relative change in blood flow, vaso-dilator activity",[4]; 3 × 10^-5 g/ml,+47
same,Relative change in coronary blood flow,[1]; [9],+118
same,Relative change in coronary blood flow,[1]; [10],+226
same,"Histamine rash test, blue coloration score (0 = none, 2 = indications, 4 = clear, 6 = strong)",[5]; 3.0 mg/kg i.p.,2.9
same,LD50,[2]; ip,50 to 100 mg/kg
CCCCCC(C)NCc1c(C)cc(C(C)(C)C)cc1C (stereo not drawn) [compound 5],Relative change in coronary blood flow,[1]; [8],+118
same,Relative change in coronary blood flow,[1]; [9],+280
CCCCCC(C)NCc1c(Cl)cccc1Cl (stereo not drawn) [compound 10],Relative change in coronary blood flow,[1]; [8],+33
Cc1cc(C)c(CNC(C)CCCC(C)C)c(C)c1 (stereo not drawn) [compound 29],"Relative change in blood flow, vaso-dilator activity",[4]; 3 × 10^-5 g/ml,+19
same,Relative change in coronary blood flow,[1]; [9],+111
same,"Histamine rash test, blue coloration score (0 = none, 2 = indications, 4 = clear, 6 = strong)",[5]; 1.0 mg/kg i.p.,3.3
same,"Histamine rash test, blue coloration score (0 = none, 2 = indications, 4 = clear, 6 = strong)",[5]; 3.0 mg/kg i.p.,1.7
same,LD50,[2]; ip,50 to 100 mg/kg
"CCCCCC(C)NCc1c(C)cc(C)cc1C (single isomer, unassigned) [compound 3]","Relative change in blood flow, vaso-dilator activity",[4]; 3 × 10^-5 g/ml,+38
same,"Relative change in blood flow, vaso-dilator activity",[4]; 10^-5 g/ml,+105
same,"Relative change in blood flow, vaso-dilator activity",[4]; 10^-6 g/ml,+43
same,"Relative change in blood flow, vaso-dilator activity",[4]; 10^-7 g/ml,+3
same,Relative change in coronary blood flow,[1]; [8],+14
same,Relative change in coronary blood flow,[1]; [9],+19
same,Relative change in coronary blood flow,[1]; [10],+30
same,"Histamine rash test, blue coloration score (0 = none, 2 = indications, 4 = clear, 6 = strong)",[5]; 1.0 mg/kg i.p.,2.5
same,"Histamine rash test, blue coloration score (0 = none, 2 = indications, 4 = clear, 6 = strong)",[5]; 3.0 mg/kg i.p.,2.5
same,LD50,[2]; ip,50 to 100 mg/kg
same,LD50,[2]; iv,10.8 mg/kg
same,Suppression of carrageenin oedema in the paw (antiphlogistic activity),[7]; 100 mg/kg p.o.,11%
CCCCCCOCCCNCc1c(C)cc(C)cc1C [compound 22],"Increase in tonus, isolated rat's portal vein",[3]; 10^-4 g/ml,+271 milligrams
same,"Increase in tonus, isolated rat's portal vein",[3]; 10^-5 g/ml,+225 milligrams
same,"Increase in tonus, isolated rat's portal vein",[3]; 10^-6 g/ml,+65 milligrams
same,Increase in vasotonus compared with heptaminol,[3]; in words,distinctly stronger increase in vasotonus than the comparison substance heptaminol
same,"Relative change in blood flow, vaso-dilator activity",[4]; 3 × 10^-5 g/ml,0
same,Relative change in coronary blood flow,[1]; [9],+109
same,"Histamine rash test, blue coloration score (0 = none, 2 = indications, 4 = clear, 6 = strong)",[5]; 1.0 mg/kg i.p.,2.6
same,"Histamine rash test, blue coloration score (0 = none, 2 = indications, 4 = clear, 6 = strong)",[5]; 3.0 mg/kg i.p.,1.3
same,LD50,[2]; ip,25 to 50 mg/kg
